Experiment [1] deals with T1, Mouse histone methyltransferase G9a (969-1263) (Mus musculus, UniProt Q9Z148).
T1 construct: The 6His-sumo mG9a (969-1263) protein was purified using the following procedure; 6His-sumo (cleaved yes); made in house; host or cells: Escherichia coli BL21 (DE3)
T1 sequence (Q9Z148 969-1263): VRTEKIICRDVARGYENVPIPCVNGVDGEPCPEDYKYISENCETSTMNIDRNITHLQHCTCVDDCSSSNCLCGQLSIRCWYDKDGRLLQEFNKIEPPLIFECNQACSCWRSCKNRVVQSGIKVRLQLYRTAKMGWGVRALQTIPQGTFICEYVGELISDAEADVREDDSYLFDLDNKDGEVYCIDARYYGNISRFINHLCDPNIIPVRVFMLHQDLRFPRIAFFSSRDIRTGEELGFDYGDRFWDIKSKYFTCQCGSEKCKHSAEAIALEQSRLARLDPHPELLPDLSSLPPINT
Kind of experiment: MALDI-TOF methylation study of G9a inhibition. Type of experiment: biochemical. Conditions: inhibitors at 5 μM concentration for 30 min.

Experiment [2] deals with HCT-8. The experiment can be described thus: Cytotoxicity / anti-proliferation assay (CCK-8), HCT-8. Type of experiment: cell-based. Conditions: Homo sapiens, 72 h, CCK-8 kit. Here is the method: (§1) Then the cells were exposed to the different inhibitors with various concentrations for 72 h. […] EC50s were calculated using GraphPad Prizm statistical package with sigmoidal variable slope dose response curve fit.
(§2) Cell anti-proliferation assays were performed to determine the toxicity of these inhibitors. […] These compounds were further evaluated against the control cell line HEK293 to test their toxicity with a non-cancerous cell line.

For experiment [3], the system named is MDA-MB-231. Kind of experiment: Cytotoxicity / anti-proliferation assay (CCK-8), MDA-MB-231. Type of experiment: cell-based. The conditions noted are these: Homo sapiens, 72 h, CCK-8 kit, read-out: EC50 MDA-MB-231. Here is the method: A549, MDA-MB-231, HCT-8, MCF-7, and HEK293 cells were seeded at 8000-10000 cells (100 μl) in white 96-well plates and pre-incubate the plate for 24 h under standard cell culture conditions, respectively. Then the cells were exposed to the different inhibitors with various concentrations for 72 h. Finally, 10 μl of CCK-8 kit solution was added to each well and incubated for 3-4 hours under standard cell culture conditions, and the 96 well plates were measured the absorbance at 450 nm using Perkin-Elmer Wallac Victor ^3V 1420 multi label plate reader (Perkin-Elmer, Wellesley, USA). EC50s were calculated using GraphPad Prizm statistical package with sigmoidal variable slope dose response curve fit.
Cell anti-proliferation assays were performed to determine the toxicity of these inhibitors. Several cell lines (MDA-MB-231, MCF-7, A549 and HCT-8) were incubated and then treated with varying concentrations of the inhibitors for 72 h, respectively. […] These compounds were further evaluated against the control cell line HEK293 to test their toxicity with a non-cancerous cell line.

Experiment [4] concerns HDAC. Kind of experiment: Cell based homogenous HDAC assay, A549. The conditions noted are these: read-out: IC50-HDAC A549; A549 cells, mean ± SD of triplicate.
Experiment [5] has as its system A549. Kind of experiment: Cytotoxicity / anti-proliferation assay (CCK-8), A549. Type of experiment: cell-based. The conditions noted are these: Homo sapiens, 72 h, CCK-8 kit. Here is the method:
as §1, §2

Experiment [6] relates to HDAC. The experiment can be described thus: Cell based homogenous HDAC assay, Hela. Conditions: read-out: IC50-HDAC Hela; Hela cells, mean ± SD of triplicate.
Protocol: After 24 h, 9 μl inhibitors with different concentration were added to the HeLa cells and incubation was continued for 3 h under cell culture conditions. After this treatment period, 10 μl of a 2 mM stock solution of the substrate Boc-K(Ac)-AMC was added into the 96 well plates with Hela cells and inhibitors. […] A549 and K562 cell lines used the same method, respectively. IC50s were calculated using GraphPad Prizm statistical package with sigmoidal variable slope dose response curve fit.
Boc-K(Ac)-AMC was used as a cell-permeable HDAC substrate, as after deacetylation it is cleaved by trypsin to release the florescent 7-amino-4-methylcoumarin (AMC).
Experiment [7] concerns HDAC. Kind of experiment: Cell based homogenous HDAC assay, K562. The conditions noted are these: read-out: IC50-HDAC K562; K562 cells, mean ± SD of triplicate.
Experiment [8] relates to MCF-7. The experiment can be described thus: Cytotoxicity / anti-proliferation assay (CCK-8), MCF-7. Type of experiment: cell-based. The conditions noted are these: Homo sapiens, MCF7; 72 h, CCK-8 kit. Here is the method:
as §1, §2

`CN1CCCN(c2nc(NC3CCN(Cc4ccccc4)CC3)c3ccc(OCCCCCCC(=O)NO)cc3n2)CC1` [Compound 30]: the inhibition at 5 µM in experiment [1] was 17.9 ± 5.51%. The 50% effective concentration (EC50) in experiment [2] is over 100 µM; in experiment [3], 24 ± 3.64 µM; in experiment [5], over 100 µM; in experiment [8], over 100 µM. Also, the IC50 in experiment [4], in experiment [6] and in experiment [7] was over 100 µM throughout.

The values are drawn from US20190322643A1 (Georgia State University Research Foundation, Inc., priority 2016, published 2019).
